# Values joined by “and” are separate entries in the source; they are usually repeats but may differ in a detail not shown here. Identical values can stand only once. Like-named read-outs stand apart in the source and are kept apart here.
# Legend:
# [1] = tested on: HL-60 human promyelocytic leukemia cells; assay: MTT cytotoxicity assay, HL-60 cells; assay type: cell-based; details: for IC50: MTT
# Description: (§1) For cytotoxicity experiments, cancer cells were seeded at a density of 5,000 (MCF-7), 10,000 (HL-60) or 2,000 cells/well (HCT116 and A549) in 96-well plates (TPP) for 24 h/37°C prior to the addition of examined agents. The non-cancerous cells, 3T3 and H9c2 cells, were cultured for 24 h/37°C in 96-well plates at a density of 10,000 cells/well, the medium was then changed to serum- and pyruvate-free DMEM (Sigma-Aldrich) and incubated with the cells for another 24 h/37°C. The cytotoxic effects of Bp4eT and its metabolites were studied at different concentrations after a 72 h/37°C incubation. In order to aid the dissolution of the lipophilic ligands, 0.1% dimethyl sulfoxide (v/v) (DMSO; Sigma-Aldrich) was present in the culture medium of all groups. At this concentration, DMSO had no effect on cellular proliferation or viability.
# (§2) The viability of cells were determined using an MTT assay (Sigma-Aldrich) according to previously established methods. The optical density of soluble MTT was measured at λ = 570 nm, subtracting the λ = 690 nm background using a Tecan Infinite 200M plate reader (Tecan Group, Männedorf, Switzerland). The viability or proliferation of experimental groups was expressed as a percentage of the untreated controls (100%).
# (§3) SigmaStat for Windows 3.5 (Systat Software, San Jose, CA, USA) statistical software package was utilized to analyze results. The data are expressed as the mean ± SD of a given number of experiments. Statistical significance was determined using a one-way ANOVA with a Bonferroni post-hoc test or Student’s t-test. The results were considered to be statistically significant when p < 0.05. The IC50 values were calculated using CalcuSyn 2.0 software (Biosoft, Cambridge, UK). Cell cycle analysis was evaluated using MultiCycle AV Software (Phoenix Flow Systems, San Diego, CA, USA).
# MCF-7 cells [2] = assay: Viability (viabilita) used to normalise caspase activity; assay type: cell-based, human; details: kontrola = 100;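 note: compound tested at 100 nM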
# Description: Supplement pone.0139929.s002.zip/caspases activity.xlsx, sheet "results_viability"
# [3] = tested on: labile iron pool of MCF-7 cells; assay: Calcein-AM assay, access to the labile iron pool; assay type: cell-based, human; set-up: Calcein fluorescence: unit not given here; details: 10 μM; for Chelation efficacy: fluorescence of free calcein at t = 600 s as percentage of Bp4eT: MCF-7, mean of 6 experiments; for Fluorescence of free calcein at 600 s as percentage of Bp4eT: MCF-7, single experiments
# Description: These experiments were performed according to Glickstein et al. with slight modifications. The MCF-7 cells were seeded in 96-well plates (10,000 cells/well) and allowed to adhere for 24 h/37°C. Cells were loaded with iron using the cellular iron donor, ferric ammonium citrate (530 μg/mL), 24 h prior to the experiment, and then washed. To prevent potential interference, especially with regard to various trace elements, the medium was replaced with ADS buffer (prepared using Millipore water supplemented with 116 mM NaCl, 5.3 mM KCl, 1 mM CaCl2, 1.2 mM MgSO4, 1.13 mM NaH2PO4, 5 mM D-glucose, and 20 mM HEPES, pH 7.4). Cells were then loaded with 2 μM of the cell-permeable calcein green acetoxymethyl ester (calcein-AM; Molecular Probes, Oregon, USA) for 30 min/37°C and washed. Cellular esterases cleave the acetoxymethyl groups to form the cell membrane-impermeable compound, calcein green. The fluorescence of calcein green is quenched upon binding iron. The intracellular fluorescence (λex = 488 nm; λem = 530 nm) of calcein green was then followed as a function of time (10 min after the addition of 10 μM Bp4eT or its metabolites) at 37°C using the Tecan Infinite 200M plate reader. The iron chelation efficacy of the metabolites in cells was expressed as a percentage of the efficacy of the parent chelator, Bp4eT (100%).
# [4] = tested on: cancer cells (HL-60, MCF-7, HCT116, A549) and non-cancerous cells (H9c2, 3T3); assay: MTT cytotoxicity assay, summary over the cell line panel; assay type: cell-based
# Description: as §1, §2, §3
# MCF-7 cells [5] = assay: Mitochondrial morphology, MitoTracker Green FM; assay type: cell-based, human; details: 10 or 100 nM, 72 h
# Description: Markers used to assess autophagy/apoptosis/necrosis in MCF-7 cells and changes of lysosomal and mitochondrial morphology were observed using an Eclipse Ti inverted epifluorescence microscope (Nikon, Tokyo, Japan), that was equipped with a cooled digital camera Zyla 5.5 sCMOS (Andor Technology, Belfast, UK), and NIS-Elements C 4.1 software (Laboratory Imaging, Prague, Czech Republic). The MCF-7 cells were seeded in 6-well plates with cover slips on the bottom at a density of 150,000 cells/well and incubated as described above in the presence or absence of 10 or 100 nM Bp4eT.
# To determine the effect of Bp4eT on mitochondrial morphology, the cells were incubated with MitoTracker® Green FM (0.25 μM; λex = 490 nm; λem = 516 nm; Molecular Probes) for 10 min/37°C. The cells were then washed with fresh medium and the images captured using the microscope described above.
compound,measurement,setting,value
"CCNC(=O)NN=C(c1ccccc1)c1ccccn1 [E-Bp4eS, 2-benzoylpyridine 4-ethylsemicarbazone]","Therapeutic index, IC50 non-cancerous cells / IC50 neoplastic cells",[1]; 3T3/HL-60,>6.6
same,"Therapeutic index, IC50 non-cancerous cells / IC50 neoplastic cells",[1]; H9c2/HL-60,5.9
same,IC50,"[1]; HL-60, 72 h/37°C, mean ± SD, n ≥ 4, read-out: IC50",151000 ± 9100 nM
same,"MTT, relative to control (0 = 100)","[1]; HL-60, 10 000 b/j, 3 μM, průměr (mean), sheet E-Bp4eS",97.96
same,"MTT, relative to control (0 = 100)","[1]; HL-60, 10 000 b/j, 3 μM, single experiment (date), sheet E-Bp4eS",100.761 and 104.358 and 95.5768 and 91.1569
same,"MTT, relative to control (0 = 100)","[1]; HL-60, 10 000 b/j, 10 μM, průměr (mean), sheet E-Bp4eS",99.97
same,"MTT, relative to control (0 = 100)","[1]; HL-60, 10 000 b/j, 10 μM, single experiment (date), sheet E-Bp4eS",101.567 and 98.1615 and 96.1949 and 103.964
same,"MTT, relative to control (0 = 100)","[1]; HL-60, 10 000 b/j, 30 μM, průměr (mean), sheet E-Bp4eS",95.62
same,"MTT, relative to control (0 = 100)","[1]; HL-60, 10 000 b/j, 30 μM, single experiment (date), sheet E-Bp4eS",99.0132 and 96.6154 and 90.9257 and 95.914
same,"MTT, relative to control (0 = 100)","[1]; HL-60, 10 000 b/j, 100 μM, průměr (mean), sheet E-Bp4eS",79.54
same,"MTT, relative to control (0 = 100)","[1]; HL-60, 10 000 b/j, 100 μM, single experiment (date), sheet E-Bp4eS",81.2266 and 75.7782 and 76.5508 and 84.6199
same,"MTT, relative to control (0 = 100)","[1]; HL-60, 10 000 b/j, 120 μM, průměr (mean), sheet E-Bp4eS",74.92
same,"MTT, relative to control (0 = 100)","[1]; HL-60, 10 000 b/j, 120 μM, single experiment (date), sheet E-Bp4eS",75.3051 and 80.9667 and 70.8568 and 72.5675
same,"MTT, relative to control (0 = 100)","[1]; HL-60, 10 000 b/j, 140 μM, průměr (mean), sheet E-Bp4eS",62.34
same,"MTT, relative to control (0 = 100)","[1]; HL-60, 10 000 b/j, 140 μM, single experiment (date), sheet E-Bp4eS",62.4842 and 69.381 and 45.4725 and 72.037
same,"MTT, relative to control (0 = 100)","[1]; HL-60, 10 000 b/j, 150 μM, průměr (mean), sheet E-Bp4eS",38.39
same,"MTT, relative to control (0 = 100)","[1]; HL-60, 10 000 b/j, 300 μM, průměr (mean), sheet E-Bp4eS",3.81
same,IC50,"[1]; HL-60, 10 000 b/j, single experiment (date), sheet E-Bp4eS, read-out: IC50",159000 nM and 144000 nM and 141000 nM
same,IC50,"[1]; Homo sapiens, HL-60, HL-60, 10 000 b/j, průměr (mean), sheet E-Bp4eS, read-out: IC50",150000 nM
same,IC50,"[1]; Homo sapiens, HL-60, HL-60, 10 000 b/j, single experiment (date), sheet E-Bp4eS, read-out: IC50",158000 nM
same,viabilita,MCF-7 cells [2]; 3 hodiny,98.187
same,viabilita,MCF-7 cells [2]; 24 hodin,99.4673
same,viabilita,MCF-7 cells [2]; 72 hodin,97.81
same,Calcein fluorescence,"[3]; 30 sec, mean (průměr)",0.000
same,Calcein fluorescence,"[3]; 30 sec, single experiments",0.000
same,Calcein fluorescence,"[3]; 60 sec, mean (průměr)",3.596
same,Calcein fluorescence,"[3]; 90 sec, mean (průměr)",0.696
same,Calcein fluorescence,"[3]; 120 sec, mean (průměr)",1.617
same,Calcein fluorescence,"[3]; 300 sec, mean (průměr)",0.000
same,Calcein fluorescence,"[3]; 300 sec, single experiments",0.000
same,Calcein fluorescence,"[3]; 600 sec, mean (průměr)",0.000
same,Calcein fluorescence,"[3]; 600 sec, single experiments",0.000
same,Chelation efficacy: fluorescence of free calcein at t = 600 s as percentage of Bp4eT,[3],0.0001667%
same,Fluorescence of free calcein at 600 s as percentage of Bp4eT,[3],0%
"CCNC(=S)NN=C(c1ccccc1)c1ccccn1 [Bp4eT, 2-benzoylpyridine 4-ethyl-3-thiosemicarbazone]",IC50,"[4]; HL-60, MCF-7 and HCT116 cells, 72 h, read-out: IC50, range over cell lines",3 to 15 nM
same,"Therapeutic indices, range","[4]; towards HL-60, MCF-7 and HCT116 cancer cells",34.9–436.3
same,"Therapeutic index, IC50 non-cancerous cells / IC50 neoplastic cells",[1]; 3T3/HL-60,436.3
same,"Therapeutic index, IC50 non-cancerous cells / IC50 neoplastic cells",[1]; H9c2/HL-60,174.7
same,"MTT, relative to control (0 = 100)","[1]; HL-60, 10 000 b/j, 0.1 nM, průměr (mean)",98.01
same,"MTT, relative to control (0 = 100)","[1]; HL-60, 10 000 b/j, 0.1 nM, single experiment (date)",96.1425 and 103.96 and 95.2755 and 95.4167 and 99.2528
same,"MTT, relative to control (0 = 100)","[1]; HL-60, 10 000 b/j, 0.3 nM, průměr (mean)",96.66
same,"MTT, relative to control (0 = 100)","[1]; HL-60, 10 000 b/j, 0.3 nM, single experiment (date)",99.4278 and 92.0645 and 96.8892 and 98.2749
same,"MTT, relative to control (0 = 100)","[1]; HL-60, 10 000 b/j, 1 nM, průměr (mean)",97.15
same,"MTT, relative to control (0 = 100)","[1]; HL-60, 10 000 b/j, 1 nM, single experiment (date)",95.2755 and 96.4389 and 98.8804 and 97.9877
same,"MTT, relative to control (0 = 100)","[1]; HL-60, 10 000 b/j, 3 nM, průměr (mean)",62.98
same,"MTT, relative to control (0 = 100)","[1]; HL-60, 10 000 b/j, 3 nM, single experiment (date)",50.186 and 52.1752 and 67.6874 and 81.8744
same,"MTT, relative to control (0 = 100)","[1]; HL-60, 10 000 b/j, 10 nM, průměr (mean)",3.98
same,"MTT, relative to control (0 = 100)","[1]; HL-60, 10 000 b/j, 30 nM, průměr (mean)",1.50
same,"MTT, relative to control (0 = 100)","[1]; HL-60, 10 000 b/j, 100 nM, průměr (mean)",1.69
same,IC50,"[1]; HL-60, 10 000 b/j, single experiment (date), read-out: IC50 měřené",2.84 nM and 3.65 nM and 4.08 nM
same,IC50,"[1]; Homo sapiens, HL-60, 72 h, HL-60, 72 h/37°C, mean ± SD, n ≥ 4, read-out: IC50",3 ± 1 nM
same,IC50,"[1]; Homo sapiens, HL-60, HL-60, 10 000 b/j, průměr (mean), read-out: IC50 měřené",3.48 nM
same,IC50,"[1]; Homo sapiens, HL-60, HL-60, 10 000 b/j, single experiment (date), read-out: IC50 měřené",3.35 nM
same,Calcein fluorescence,"[3]; 30 sec, mean (průměr)",27.822
same,Calcein fluorescence,"[3]; 60 sec, mean (průměr)",40.360
same,Calcein fluorescence,"[3]; 90 sec, mean (průměr)",65.393
same,Calcein fluorescence,"[3]; 120 sec, mean (průměr)",66.572
same,Calcein fluorescence,"[3]; 300 sec, mean (průměr)",146.135
same,Calcein fluorescence,"[3]; 300 sec, single experiments",168.950 and 158.308 and 180.958 and 116.900 and 150.183 and 101.508
same,Calcein fluorescence,"[3]; 600 sec, mean (průměr)",220.551
same,Calcein fluorescence,"[3]; 600 sec, single experiments",239.975 and 219.283 and 288.833 and 220.450 and 195.583 and 159.183
same,Chelation efficacy: fluorescence of free calcein at t = 600 s as percentage of Bp4eT,[3],100%
same,Fluorescence of free calcein at 600 s as percentage of Bp4eT,[3],108.807% and 99.4251% and 130.96% and 99.954% and 88.6793% and 72.1752%
same,Mitochondrial morphology,MCF-7 cells [5],more swollen and enlarged

# Source: article PMC4604124, “In Vitro Characterization of the Pharmacological Properties of the Anti-Cancer Chelator, Bp4eT, and Its Phase I Metabolites” (PLoS ONE, 2015)
